# Columns and labels:
# [1] = type: physicochemical
# Method: 5% Rutin micro-sized powder was dispersed in water, shaken and subsequently centrifuged at 4,000 rpm and then filtered through a 0.45 μm filter to remove any potential non-dissolved fine crystals. A Rutin nanosuspension was treated the same way but using a 0.2 μm filter.
# [2] = tested on: skin of volunteers (UV erythem); assay: photo-protective potential after topical application in vivo (MED for UV erythem, SPF); conditions: human volunteers, 2 mg/cm^2 once daily on 4 days, UV irradiation day 4, 15 min after application
# Text: The Rutin and the Hesperidin nanosuspensions were investigated in vivo regarding their photo-protective potential compared to solutions of a water-soluble Rutin conjugate with saccharide (example 15). Topical application of the anti-oxidants should increase the dose required to generate a UV erythem. The higher the photo-protective effect, the higher will be the increase in the MED for UV erythem generation. Based on the ratio MED of treated area/MED untreated area a sun protection factor can be calculated. […] To very well differentiate in efficiency between the preparations, the formulations were applied only over 4 days (day 1, 2, 3 and 4) and only once a day. […] It has to be noted that the selected concentration of Rutin saccharide was equivalent to 5% Rutin.
# Various formulations were investigated regarding their photo-protective potential after topical application in vivo. These formulations contained antioxidants and the photo-protective potential was evaluated by assessing the MED for generating an UV erythem (MED—minimal dose required for generating an erythem, minimal erythem dose). The sun susceptibility of the skin of volunteers was assessed after four times of application (once daily) of the formulations in comparison to untreated skin. Based on this a sun protection factor (SPF) was calculated.
# The study was performed as a placebo controlled double blind study. Three male and three female volunteers with normal skin of photo type II to III took part. The medium age of the female volunteers was 49.6±9.8 years (38.8-57.4 years). Topical application of the formulations took place on 4 subsequent days (2 mg/cm^2), once daily. On day 4 eradiation by UV was performed 15 minutes after application of the formulations to the skin using a sun simulator SU6p (m.u.t. GmbH, Wedel/Germany). The sun simulator created 6 single doses with a geometric increment of 25%. The 5 test areas were on the back of the volunteers (4 areas for the formulations, 1 untreated control area).
# A sun protection factor was defined as the ratio of the MED of the formulation treated area to the MED of the untreated area.
compound,measurement,setting,value
"C[C@@H]1O[C@@H](OC[C@H]2O[C@@H](Oc3c(-c4ccc(O)c(O)c4)oc4cc(O)cc(O)c4c3=O)[C@H](O)[C@@H](O)[C@@H]2O)[C@H](O)[C@H](O)[C@H]1O [microcrystalline Rutin suspension, Rutin]",saturation solubility (concentration of dissolved Rutin in filtrate),[1],0.0079%
CC(=O)Oc1c(C)c(C)c2c(c1C)CCC(C)(CCC[C@H](C)CCC[C@H](C)CCCC(C)C)O2 (stereo partly drawn) [α-tocopherol acetate],sun protection factor (SPF) = ratio MED treated area/MED untreated area (partly given as MED),[2],0.85±0.23
same,sun protection factor (SPF) = ratio MED treated area/MED untreated area (partly given as MED),[2]; listed as alpha-tocopherol acetate,0.85
α-G Rutin PS,sun protection factor (SPF) = ratio MED treated area/MED untreated area (partly given as MED),[2]; listed as AGRPS,1.27±0.31
same,sun protection factor (SPF) = ratio MED treated area/MED untreated area (partly given as MED),[2]; listed as Rutin derivative solution,1.27
same,sun protection factor (SPF) = ratio MED treated area/MED untreated area (partly given as MED),[2]; listed as Rutin saccharide,1.27

# From patent publication US9114077B2, “Nanocrystals for use in topical cosmetic formulations and method of production thereof” (priority 2006, dated 2015)
